Laboratory results as given in ChEMBL document CHEMBL3045804, “Synthesis and Herbicidal Activity of 2-Benzylamino-4-methyl-6-trifluoromethyl-1, 3, 5-triazune Derivatives” (J Pestic Sci, 1998).

test system: Digitaria ciliaris; assay: Herbicidal activity against Digitaria ciliaris assessed as killing at 100 g/10 acre measured after 3 weeks by pre-emergence/field application test; assay type: functional

Row | Compound | Activity [%]
1 | Cc1ccc(CNc2nc(C)nc(C(F)(F)F)n2)cc1 | 1
2 | Cc1nc(NCc2ccc(F)cc2)nc(C(F)(F)F)n1 | 76
3 | Cc1nc(NCc2ccc(Cl)cc2)nc(C(F)(F)F)n1 | 91
4 | Cc1nc(NCc2ccc(Br)cc2)nc(C(F)(F)F)n1 | 91
5 | CCNc1nc(Cl)nc(NCC)n1 [SIMAZINE] | 51

test system: Chenopodium album; assay: Herbicidal activity against Chenopodium album assessed as killing at 100 g/10 acre measured after 3 weeks by pre-emergence/field application test; assay type: functional

Row | Compound | Activity [%]
6 | Cc1ccc(CNc2nc(C)nc(C(F)(F)F)n2)cc1 | 91
7 | Cc1nc(NCc2ccc(F)cc2)nc(C(F)(F)F)n1 | 91
8 | Cc1nc(NCc2ccc(Cl)cc2)nc(C(F)(F)F)n1 | 100
9 | Cc1nc(NCc2ccc(Br)cc2)nc(C(F)(F)F)n1 | 100
10 | CCNc1nc(Cl)nc(NCC)n1 [SIMAZINE] | 91

test system: Pontederia vaginalis; assay: Herbicidal activity against Monochoria vaginalis assessed as killing at 100 g/10 acre measured after 3 weeks by pre-emergence/paddy application test; assay type: functional

Row | Compound | Activity [%]
11 | Cc1ccc(CNc2nc(C)nc(C(F)(F)F)n2)cc1 | 26
12 | Cc1nc(NCc2ccc(F)cc2)nc(C(F)(F)F)n1 | 91
13 | Cc1nc(NCc2ccc(Cl)cc2)nc(C(F)(F)F)n1 | 100
14 | Cc1nc(NCc2ccc(Br)cc2)nc(C(F)(F)F)n1 | 91

test system: Stellaria media; assay: Herbicidal activity against Stellaria media assessed as killing at 100 g/10 acre measured after 3 weeks by pre-emergence/field application test; assay type: functional

Row | Compound | Activity [%]
15 | Cc1ccc(CNc2nc(C)nc(C(F)(F)F)n2)cc1 | 91
16 | Cc1nc(NCc2ccc(F)cc2)nc(C(F)(F)F)n1 | 100
17 | Cc1nc(NCc2ccc(Cl)cc2)nc(C(F)(F)F)n1 | 91
18 | Cc1nc(NCc2ccc(Br)cc2)nc(C(F)(F)F)n1 | 91
19 | CCNc1nc(Cl)nc(NCC)n1 [SIMAZINE] | 91

test system: Chenopodium album; assay: Herbicidal activity against Chenopodium album assessed as killing at 100 g/10 acre measured after 3 weeks by post-emergence/foliar application test; assay type: functional

Row | Compound | Activity [%]
20 | Cc1ccc(CNc2nc(C)nc(C(F)(F)F)n2)cc1 | 91
21 | Cc1nc(NCc2ccc(Cl)cc2)nc(C(F)(F)F)n1 | 100
22 | Cc1nc(NCc2ccc(Br)cc2)nc(C(F)(F)F)n1 | 100

test system: Stellaria media; assay: Herbicidal activity against Stellaria media assessed as killing at 100 g/10 acre measured after 3 weeks by post-emergence/foliar application test; assay type: functional

Row | Compound | Activity [%]
23 | Cc1ccc(CNc2nc(C)nc(C(F)(F)F)n2)cc1 | 100
24 | Cc1nc(NCc2ccc(F)cc2)nc(C(F)(F)F)n1 | 100
25 | Cc1nc(NCc2ccc(Cl)cc2)nc(C(F)(F)F)n1 | 100
26 | Cc1nc(NCc2ccc(Br)cc2)nc(C(F)(F)F)n1 | 100

test system: Digitaria ciliaris; assay: Herbicidal activity against Digitaria ciliaris assessed as killing at 100 g/10 acre measured after 3 weeks by post-emergence/foliar application test; assay type: functional

Row | Compound | Activity [%]
27 | Cc1ccc(CNc2nc(C)nc(C(F)(F)F)n2)cc1 | 0
28 | Cc1nc(NCc2ccc(F)cc2)nc(C(F)(F)F)n1 | 91
29 | Cc1nc(NCc2ccc(Cl)cc2)nc(C(F)(F)F)n1 | 76
30 | Cc1nc(NCc2ccc(Br)cc2)nc(C(F)(F)F)n1 | 100

test system: Echinochloa crus-galli; assay: Herbicidal activity against Echinochloa crus-galli (barnyard grass) assessed as killing at 100 g/10 acre measured after 3 weeks by pre-emergence/field application test; assay type: functional

Row | Compound | Activity [%]
31 | Cc1ccc(CNc2nc(C)nc(C(F)(F)F)n2)cc1 | 76
32 | Cc1nc(NCc2ccc(F)cc2)nc(C(F)(F)F)n1 | 76
33 | Cc1nc(NCc2ccc(Cl)cc2)nc(C(F)(F)F)n1 | 51
34 | Cc1nc(NCc2ccc(Br)cc2)nc(C(F)(F)F)n1 | 76
35 | CCNc1nc(Cl)nc(NCC)n1 [SIMAZINE] | 26

test system: Echinochloa oryzicola; assay: Herbicidal activity against Echinochloa oryzicola assessed as killing at 100 g/10 acre measured after 3 weeks by pre-emergence/paddy application test; assay type: functional

Row | Compound | Activity [%]
36 | Cc1ccc(CNc2nc(C)nc(C(F)(F)F)n2)cc1 | 51
37 | Cc1nc(NCc2ccc(F)cc2)nc(C(F)(F)F)n1 | 76
38 | Cc1nc(NCc2ccc(Cl)cc2)nc(C(F)(F)F)n1 | 76
39 | Cc1nc(NCc2ccc(Br)cc2)nc(C(F)(F)F)n1 | 51

test system: Schoenoplectiella juncoides; assay: Herbicidal activity against Schoenoplectiella juncoides assessed as killing at 100 g/10 acre measured after 3 weeks by pre-emergence/paddy application test; assay type: functional

Row | Compound | Activity [%]
40 | Cc1ccc(CNc2nc(C)nc(C(F)(F)F)n2)cc1 | 0
41 | Cc1nc(NCc2ccc(F)cc2)nc(C(F)(F)F)n1 | 51
42 | Cc1nc(NCc2ccc(Cl)cc2)nc(C(F)(F)F)n1 | 76
43 | Cc1nc(NCc2ccc(Br)cc2)nc(C(F)(F)F)n1 | 76

test system: Rotala indica; assay: Herbicidal activity against Rotala indica assessed as killing at 100 g/10 acre measured after 3 weeks by pre-emergence/paddy application test; assay type: functional

Row | Compound | Activity [%]
44 | Cc1ccc(CNc2nc(C)nc(C(F)(F)F)n2)cc1 | 76
45 | Cc1nc(NCc2ccc(F)cc2)nc(C(F)(F)F)n1 | 100
46 | Cc1nc(NCc2ccc(Cl)cc2)nc(C(F)(F)F)n1 | 91
47 | Cc1nc(NCc2ccc(Br)cc2)nc(C(F)(F)F)n1 | 100

test system: Echinochloa crus-galli; assay: Herbicidal activity against Echinochloa crus-galli (barnyard grass) assessed as killing at 100 g/10 acre measured after 3 weeks by post-emergence/foliar application test; assay type: functional

Row | Compound | Activity [%]
48 | Cc1ccc(CNc2nc(C)nc(C(F)(F)F)n2)cc1 | 1
49 | Cc1nc(NCc2ccc(F)cc2)nc(C(F)(F)F)n1 | 51
50 | Cc1nc(NCc2ccc(Cl)cc2)nc(C(F)(F)F)n1 | 26
51 | Cc1nc(NCc2ccc(Br)cc2)nc(C(F)(F)F)n1 | 26
